Measured values from PMC12111564, “Extended Family of Thiophosphoryl-Appended Pd(II) Pincer Complexes with a Deprotonated Amide Core: Synthesis and Biological Evaluation” (International Journal of Molecular Sciences, 2025).

Assays:
breast cancer (MCF7) = test: MTT cytotoxicity assay, MCF7; assay type: cell-based, human; details: 48 h exposure, read-out: IC50 ± SD, MCF7
Experimental: (§1) The cytotoxic activity of the complexes obtained was screened against several human solid and hematopoietic cancer cell lines using the conventional MTT assay. To evaluate their selectivity for cancerous over non-cancerous cells, analogous tests were performed with pseudonormal human embryonic kidney (HEK293) and breast epithelial (HBL100) cell lines.
(§2) The cytotoxicity of the compounds obtained was investigated on human colorectal carcinoma (HCT116), breast cancer (MCF7), prostate adenocarcinoma (PC3), glioblastoma (U251), ovarian adenocarcinoma (Scov3), chronic myelogenous leukemia (K562 and K562/iS9), multiple plasmacytoma (AMO1), and acute lymphoblastic leukemia (H9) cell lines, as well as human embryonic kidney (HEK293) and mammary epithelial (HBL100 and HBL100/Dox) cells used as non-cancerous cell lineages. All the cell lines were obtained from American Type Culture Collection (ATCC). The tested compounds were initially dissolved in DMSO. Cisplatin was obtained from a commercial source (as an infusion concentrate in natural saline solution). The experiments were performed using the conventional MTT assay (ICN Biomedicals, Eschwege, Germany) according to the previously published procedure.

[1] = system: doxorubicin-resistant mammary epithelial cells HBL100/Dox; test: MTT cytotoxicity assay, HBL100/Dox; assay type: cell-based, human; details: 48 h exposure, doxorubicin-resistant clone, read-out: IC50 ± SD, HBL100/Dox
Experimental: as §1, §2

[2] = system: human colorectal carcinoma (HCT116); test: MTT cytotoxicity assay, HCT116; assay type: cell-based; details: 48 h exposure, read-out: IC50 ± SD, HCT116
Experimental: as §1, §2

[3] = system: mammary epithelial cells HBL100; test: MTT cytotoxicity assay, HBL100; assay type: cell-based, human; details: 48 h exposure, non-cancerous cells, read-out: IC50 ± SD, HBL100
Experimental: as §1, §2

[4] = system: human embryonic kidney (HEK293); test: MTT cytotoxicity assay, HEK293; assay type: cell-based; details: 48 h exposure, non-cancerous cells, read-out: IC50 ± SD, HEK293
Experimental: as §1, §2

[5] = system: prostate adenocarcinoma (PC3); test: MTT cytotoxicity assay, PC3; assay type: cell-based, human; details: 48 h exposure, read-out: IC50 ± SD, PC3
Experimental: as §1, §2

[6] = system: acute lymphoblastic leukemia (H9); test: MTT cytotoxicity assay, H9; assay type: cell-based, human; details: 48 h exposure, read-out: IC50 ± SD, H9
Experimental: as §1
as §2, with “Cisplatin was obtained from a commercial source (as an infusion concentrate in natural saline solution).” left out

[7] = system: multiple plasmacytoma (AMO1); test: MTT cytotoxicity assay, AMO1; assay type: cell-based, human; details: 48 h exposure, read-out: IC50 ± SD, AMO1
Experimental: as §1, §2

[8] = system: chronic myelogenous leukemia (K562); test: MTT cytotoxicity assay, K562; assay type: cell-based, human; details: 48 h exposure, read-out: IC50 ± SD, K562
Experimental: as §1, §2

[9] = system: doxorubicin-resistant subline of chronic myelogenous leukemia cells (K562/iS9); test: MTT cytotoxicity assay, K562/iS9; assay type: cell-based, human; details: 48 h exposure, read-out: IC50 ± SD, K562/iS9
Experimental: as §1, §2

Row | SMILES | IC50 (breast cancer (MCF7)) [µM] | IC50 [1] [µM] | IC50 [2] [µM] | IC50 [3] [µM] | IC50 [4] [µM] | IC50 [5] [µM] | IC50 [6] [µM] | IC50 [7] [µM] | IC50 [8] [µM] | IC50 [9] [µM]
1 | C[S+]1CC(=O)[N]2CP(c3ccccc3)(c3ccccc3)=[S+][Pd-2]21[Cl] (stereo not drawn) [Compound 13b, [κ^3-S,N,S-(L)Pd(II)Cl] complex] | 40 ± 5 | > 60 | 23 ± 7 | 52 ± 4 | 34 ± 2 | 30 ± 2 | – | – | – | –
2 | C[S+]1CC(=O)[N]2C(c3ccccc3)P(c3ccccc3)(c3ccccc3)=[S+][Pd-2]21[Cl] (racemic) [Compound 13a, [κ^3-S,N,S-(L)Pd(II)Cl] complex] | 31 ± 6 | 54 ± 5.6 | 17 ± 2 | 32 ± 6 | 22 ± 6 | 30 ± 2.5 | 4 ± 0.6 | 4.2 ± 0.3 | 14.2 ± 2.2 | 15.2 ± 1.8
3 | O=C1c2ccc3ccccc3[n+]2[Pd-2]2([Cl])[S+]=P(c3ccccc3)(c3ccccc3)C(c3ccccc3)[N]12 (racemic) [Compound 10a, [κ^3-S,N,N-(L)Pd(II)Cl] complex] | > 65 | > 60 | 22 ± 2 | > 60 | 15 ± 4 | 33 ± 3 | – | – | – | –
4 | N.N.[Cl][Pt][Cl] [cisplatin, reference compound] | 25 ± 4 | 23.6 ± 3.6 | 18 ± 2 | 14.6 ± 3.6 | 12.5 ± 1.5 | 16 ± 3 | – | 3.2 ± 0.6 | 15.5 ± 0.5 | 16 ± 2
5 | O=C1c2cccc3ccc[n+](c23)[Pd-2]2([Cl])[S+]=P(c3ccccc3)(c3ccccc3)C[N]12 (stereo not drawn) [Compound 11, [κ^3-S,N,N-(L)Pd(II)Cl] complex] | 46 ± 4 | 41 ± 1 | 18 ± 2 | 29 ± 5 | 41 ± 4 | 31 ± 1 | – | – | – | –
6 | O=C1c2sc3ccccc3[n+]2[Pd-2]2([Cl])[S+]=P(c3ccccc3)(c3ccccc3)C(c3ccccc3)[N]12 (racemic) [Compound 12, [κ^3-S,N,N-(L)Pd(II)Cl] complex] | 19 ± 4.2 | 6.7 ± 1.5 | 11.3 ± 3.1 | 12 ± 3.5 | 6.5 ± 2.2 | 10 ± 2.8 | 2.2 ± 0.7 | 3.7 ± 0.7 | 4.2 ± 0.8 | 2 ± 0.4
7 | C[S+]1c2ccccc2C(=O)[N]2C(c3ccccc3)P(c3ccccc3)(c3ccccc3)=[S+][Pd-2]21[Cl] (racemic) [Compound 14, [κ^3-S,N,S-(L)Pd(II)Cl] complex] | 9.2 ± 0.9 | 2.1 ± 0.3 | 4.5 ± 1.1 | 8.4 ± 0.5 | 4.9 ± 1.5 | 4.2 ± 1.4 | 2.3 ± 0.5 | 1.2 ± 0.3 | 2.1 ± 0.2 | 1.7 ± 0.2
